According to the METLIN SMRT retention time set (Domingo-Almenara et al. 2019):

assay: gradient 5% acetonitrile 3 min, to 50% in 2 min, to 85% in 15 min, held 3 min, 100 µL/min; details: column: Zorbax Extend-C18 2.1 x 50 mm; eluents: water / acetonitrile, 0.1% formic acid
Procedure, shortened: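 Using water and acetonitrile that each contained 0.1% formic acid, mixtures of ~100 pure standards were separated at 100 μL/min on a Zorbax Extend-C18 column (2.1 × 50 mm, 1.8 μm). The HPLC fed a quadrupole time-of-flight mass spectrometer working in positive and negative ionization mode, with dead and dwell volumes of 40 μL and 900 μL. Data were acquired over 3 months. Retention time was read from computationally picked adduct peaks after manual inspection of each.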

SMILES	RP-LC retention time [s]
O=C([C@@H]1C[C@H](F)CN1C(=O)Nc1ccc(Br)cc1)N1CCCCC1	725
Cc1ccc(-c2nc(-c3ccc(S(=O)(=O)N4CCCC4)cc3)no2)cc1F	1260
CCC(C)[C@H](NC(=O)N1C[C@H]2C[C@@H](C1)c1cccc(=O)n1C2)C(=O)OC (stereo partly specified)	624
Cc1cccc(CNC(=O)c2cc(C(C)(C)C)n3nccc3n2)c1	1230
Cc1cc(OCC(=O)Nc2ccc(Br)cc2F)nc(N2CCCCC2)n1	666
CC1(C(=O)NCc2ccc(F)cc2)CN(S(C)(=O)=O)CC(=O)N1Cc1ccc(Cl)cc1 (stereo unspecified)	866
Cc1ccc(CN2CCc3nc(N4CCCC4)ncc3C2)cc1C	640
COc1ccc(OC)c(NC(=O)CCc2c(C)nn(-c3cc(N(C)C)ncn3)c2C)c1	822
Cc1ccccc1NC(=O)C1CCCN(C(=O)c2nn(C)c3c2CN(C(=O)CC2CCCC2)CC3)C1 (stereo unspecified)	877
O=C(NCC#CCN1CCc2ccccc2C1)c1cc(C2CC2)on1	579
COc1ccc(CC(C)(O)CNC(=O)Nc2cccs2)cc1 (stereo unspecified)	699
CC(C)CN(Cc1ccccc1)Cc1cc(=O)n2cc(Cl)ccc2n1	686
CC(C)C1c2nccn2CCCN1C(=O)CCn1cccn1 (stereo unspecified)	574
Cc1cc(C)n(-c2nc(C)c(C(=O)Nc3ccc(N(C)C)cc3)s2)n1	737
CCOc1cccc(-c2noc(Cn3cnc4c(nnn4-c4ccccc4OC)c3=O)n2)c1	979
O=C(c1ccc(Cl)cc1)N1CCC(N(C(=O)C2CC2)C2CCOCC2)CC1	775
CCC(C)C(NC(=O)Cc1cccc(OC)c1)C(=O)Nc1nc2ccccc2[nH]1 (stereo unspecified)	733
COc1ccc(S(=O)(=O)N2CCCC(Cn3c(C)nc4cccnc43)C2)cc1 (stereo unspecified)	688
COc1ccc2c(c1)C1CC(C)(O2)N(C)C(=O)C1S(=O)(=O)c1ccc(C(C)C)cc1 (stereo unspecified)	1160
O=C(Cc1ccsc1)NC1CCN(c2ccc(=O)n(CCOc3ccccc3)n2)C1 (stereo unspecified)	750
Cc1sc(C)c(S(=O)(=O)Nc2ccccc2F)c1-c1cc(C(F)(F)F)on1	1130
Cc1ccc(N2C=NS(=O)(=O)c3cccnc32)cc1C	840
c1ccc(C2CNCc3ccccc32)cc1 (stereo unspecified)	698

SMILES	RP-LC retention time [s]
Cc1ccc2[nH]cc(CCNC(=O)COc3ccccc3)c2c1	904
O=C(CN1CCCc2nc(C3CC3)ncc2C1=O)NC1CCCC1	673
O=C(c1ccc2c(c1)CCN2C(=O)C1CCC1)N1CCCC1	589
CC(C)C(=O)N1CCN(c2ccc(=O)n(-c3ccc(Cl)cc3)n2)CC1	767
O=C(NCCC1=CCCCC1)C1CCCN(c2ccncc2)C1 (stereo unspecified)	645
O=C(NCc1cc(F)ccc1F)C1CN(S(=O)(=O)c2cccnc2)CC12CCCCC2 (stereo unspecified)	919
O=C(CSc1nnc(-c2ccc3c(c2)OCCCO3)n1C1CC1)N1CCCC1	710
Cc1nc(-c2noc(-c3ccncc3)n2)cn1CC(=O)NC1CCCCC1	896
O=S(=O)(NCc1ccco1)c1ccc(Cl)c(-c2nnc(-c3ccccc3)o2)c1	980
COc1cccc(CNC(=O)N2CCCC(C)(C(=O)NCc3ccccc3C)C2)c1 (stereo unspecified)	860
Cc1cccc(-c2noc(C3CCCN3C(=O)Nc3ccc4c(c3)OCO4)n2)c1 (stereo unspecified)	961
O=C(NCc1[nH]nc2ccccc12)c1cccc(Cl)c1	805
Cc1nn(-c2ccccc2)c2nc(N3CCCC(C(=O)NCc4ccc(F)cc4)C3)sc12 (stereo unspecified)	806
O=C(Cn1cnc(-c2noc(-c3ccccc3)n2)c1)NCc1ccccc1	803
O=C(NCc1ccccc1)C1CCCN(C(=O)C2Sc3ccccc3NC2=O)C1 (stereo unspecified)	746
CCOC(=O)c1[nH]c(C)c(CCC(=O)N2CCC(C(=O)NCc3ccc(F)cc3)CC2)c1C	785
CCCN1C(=O)Cc2ccccc2C1C(=O)NCc1cccc(Br)c1 (stereo unspecified)	854
Cc1ccc2nc(NC(=O)C3CCN(S(=O)(=O)c4ccc5[nH]c(=O)ccc5c4)CC3)sc2c1	814
CN1C(=O)COc2ccc(-c3csc(NC(=O)c4cccc(Cl)c4)n3)cc21	1020
CCOc1ccc(N2CC(c3nc(-c4ccc(OC)cc4)no3)CC2=O)cc1 (stereo unspecified)	972
Cc1cc(Br)ccc1NC(=O)Cn1cnc(C)c(C)c1=O	673
Cc1ccc2c(c1)N(Cc1nc(-c3ccccc3Cl)no1)C(=O)CO2	1040
CCCCNC(=O)Cn1c(=O)c2cnc(-c3ccc(Cl)cc3)nc2n(C)c1=O	982

SMILES	RP-LC retention time [s]
CCS(=O)(=O)NCc1cccnc1Oc1ccccc1	788
Cc1cc(Cl)ccc1S(=O)(=O)N1CCC(OC2CCN(CC3CC3)C2=O)CC1 (stereo unspecified)	975
O=C(NCc1cccs1)C1CCCN(c2nc3ccsc3c(=O)n2-c2ccc(F)cc2)C1 (stereo unspecified)	843
CCn1cccc1-c1nc(C)c(C(=O)Nc2ccc(C(C)C)cc2)s1	1310
CC(=O)c1ccc(NC(=O)C(C)Oc2ccc(=O)n(-c3ccc(F)cc3)n2)cc1 (stereo unspecified)	727
CCc1nc2ccccc2c(=O)n1Cc1noc(-c2cccc(N(C)C)c2)n1	998
O=C(c1ccc2c(c1)CCCN2S(=O)(=O)c1ccccc1)N1CCCCC1	939
CN(C)C(=O)c1ccc2c(c1)nc(CN1CCN(C(=O)COc3ccc(Cl)cc3)CC1)n2C	640
CC(C)c1cc(=O)n(CC(=O)Nc2cccc3nsnc23)cn1	664
COc1ccc(NS(=O)(=O)c2cccc(-c3nc(-c4ccccc4)no3)c2)cc1OC	1060
CCN1CCn2cc(S(=O)(=O)Nc3cccc(C#N)c3)cc2C1=O	680
Cc1cc(C(=O)NCCc2c[nH]c3ccccc23)c2c(C)nn(-c3cccc(Cl)c3C)c2n1	1050
CCCCCCCCCC(=O)NC(CN1CCOCC1)[C@H](O)c1ccccc1 (stereo partly specified)	888
CC(=O)N1CCc2cc(C(=O)NC(C)C)ccc21	644
CCc1nc2cc(N3CCC(C(=O)NCc4ccccc4)CC3)cnc2nc1CC	820
CCNC(=O)c1cc(C)nc2ccc(C(C)C)cc12	697
COc1ccc(N2C(=O)CCC(C(=O)N3CC(C)CC(C)C3)C2c2ccc(F)cc2)cc1 (stereo unspecified)	896
CN1C(=O)Cc2ccccc2C1C(=O)NCc1cc(F)ccc1F (stereo unspecified)	716
Cn1cc(S(=O)(=O)N2CCOCC2)cc1C(=O)Nc1ccccc1	801
Cc1cc(N2CCN(C(=O)Nc3cccc(F)c3)CC2)nc(N2CCCC2)n1	680
CC(C)CNC(=O)N1CCn2nnc(CCC(=O)N3CCOCC3)c2C1	604
CCOc1cc(=O)n2c(c1C(=O)Nc1ccc(Br)cc1F)CCCC2	790
O=C(Cn1cc(-c2ccc(F)cc2)oc1=O)N1CCN(c2cccc(Cl)c2)CC1	972

SMILES	RP-LC retention time [s]
CCN1C(=O)COc2ccc(-c3noc(C4(c5ccc(OC)cc5)CC4)n3)cc21	1140
CC(=O)Nc1c(C)nn(-c2ccc(Cl)cc2)c1N1CCC(C(=O)NCc2ccco2)CC1	685
Cc1nn(-c2ccc(-c3ccccc3)nn2)c(C)c1S(=O)(=O)N1CCN(C(C)C)CC1	683
Cc1nnc(-n2cccc2)s1	733
CCn1nnc2cc(-c3noc(-c4cc(OC)c(OC)c(OC)c4)n3)ccc21	993
O=C(CN1CCN(Cc2ccc(F)cc2Cl)C1=O)NC1CC1	692
Cc1ccc2c(c1)OCC(=O)N2Cc1nc(-c2ccc(Br)cc2)no1	1180
NC(=O)C1(N2CCCCC2)CCN(C(=O)c2cc3ccc4cccnc4c3[nH]2)CC1	574
Cn1nnc2ccc(-c3noc(-c4ccccc4F)n3)cc21	876
COc1ccc(NC(=O)C(C)C2CCN(C(=O)Nc3ccc(Cl)cc3)CC2)c(OC)c1 (stereo unspecified)	898
COc1ccc(OC)c(NC(=O)Cn2c(=O)n(-c3ccc(C)cc3)c3ncccc32)c1	896
Cc1c(CN2CCC[C@H]2c2nc(-c3ccccc3)n[nH]2)cnn1C	584
Cc1cc(NC(=O)C(=O)NCC2(c3cccs3)CC2)no1	802
Cn1nc(CNC(=O)c2ccc(Cl)cc2)c2ccccc21	852
O=C(CC(F)(F)F)NCCc1noc(C2CC2)n1	671
Cc1ccc(S(=O)(=O)NC2CCN(C(=O)C3CCC3)CC2)cc1	761
Cc1nnc([C@@H]2CC(F)(F)CN2C(=O)c2ccc3ccccc3n2)o1	756
O=C(NC1CCCCCC1)C1c2ccccc2C(=O)N1Cc1cccnc1 (stereo unspecified)	590
Cc1ccccc1NS(=O)(=O)c1ccc(-c2nnc(C3CCC3)o2)o1	909
O=C(c1cc(F)cc(F)c1)N1CCc2nc(-c3ccccc3)ncc2C1	946
Cc1cc(C(=O)O)c2c(C)nn(-c3cccc(F)c3)c2n1	954
COc1cccc(CCC(=O)NCC(=O)Nc2nc3ccccc3[nH]2)c1	639
